# Source: patent US20120010179A1, “Methods of using a thiazole derivative” (priority 2006, published 2012)
# Key:
# patients with COPD = assay: Pharmacodynamic and safety assessments (ECG, vital signs, serum potassium, adverse events, laboratory), Example 1; type: in vivo, human
# Description: Twelve-lead electrocardiograms (ECGs) were conducted after the subject had been resting and supine for ≧3 minutes. In addition to screening and pre-treatment baseline (Day 0) measurements, ECGs were also recorded at specific times during the treatment period. All 12-lead ECG monitors used for this study were calibrated and standardized. The ventricular rate, PR interval (the time elapsing between the beginning of the P wave and the beginning of the QRS interval in an electrocardiogram, corresponding to the electrical activity through the atria), QRS interval (the movement of electrical impulses through the ventricles), QT/QTc interval (the QT interval measures the time between the start of the Q wave and the end of the T wave in the heart's electrical cycle; QTc is a corrected QT interval, as determined by Fridericia's formula [QTcF] and Bazett's formula [QTcB]), and the overall ECG interpretation (normal or abnormal) were documented. Measurements were recorded prior to collection of any blood samples, where applicable. At least three original copies of each ECG (one each for the site, for the sponsor, and for the central ECG provider) were made. […]
# Vital signs (heart rate and systolic blood pressure) were measured after the subject had been sitting for ≧3 minutes. […] Measurements were recorded prior to the collection of any blood samples, where applicable. […]
# [1] = test system: guinea pig models of pulmonary disease; settings: cited from earlier work
smiles,measurement,setting,value
"CCOc1ccc(-c2nc(-c3cccc(C(=O)O)n3)cs2)cc1OCC [Tetomilast, 2-(3,4-diethoxyphenyl)-4-(2-carboxy-6-pyridyl)thiazole]","differences in adverse events, serum chemistry, hematology, or urinalysis versus placebo",patients with COPD; oral tetomilast with inhaled albuterol,no clinically meaningful differences
same,"changes in heart rate, systolic blood pressure, serum potassium, or QT interval versus placebo",patients with COPD; oral tetomilast with relatively high doses of inhaled albuterol,No clinically meaningful changes
same,airway resistance and peak expiration flow,[1],improve
